The numbers were not newly measured in patent US7943666B2, “Esters of capsaicin for treating pain” (Trinity Laboratories, Inc., priority 2006, dated 2011), which cites them from elsewhere.

The conditions of data set [1]: 540 mg per day orally for 30 days plus topical as needed; arthritis not responding to NSAIDs.
The conditions of data set [2]: rats, i.v. administration.

A value given as a limit tells only on which side of the number the result lay.

On to `CCCC/C=C\CCCCCCCC(=O)OCCCCCCCCCCCCCCCC` [cetyl myristoleate, cis-9-cetyl myristoleate], for which the Individuals improved in data set [1] is listed as 63.5%.
With `COc1cc(CNC(=O)CCCCC=CC(C)C)ccc1O` [capsaicin, 8-methyl-N-vanillyl-6-nonenamide], the “Time to distribution to brain, spinal cord, liver and blood” value in data set [2] is at most 20 min.
